Assay results reported in ChEMBL document CHEMBL4052645, “Discovery of potent and efficacious pyrrolopyridazines as dual JAK1/3 inhibitors” (Bioorg Med Chem Lett, 2017).
Values after ≈ are worked out from the molar mass of the structure shown. Active and inactive are the calls of the source. The calls are words filed in the database; no cut-off is given here.

Experiments:
[1] = Protein binding in human serum; format: ADME, cell-free; conditions: read-out: PB (converted)
[2] = Drug concentration in mouse after 24 hrs; format: ADME; conditions: in vivo, read-out: Drug uptake
[3] = organism: Mus musculus; test: animal or person; conditions: Balb/c, 24 h
[4] = Oral bioavailability in mouse; format: ADME, organism-based; conditions: in vivo
[5] = test system: Mus musculus; test: Antiarthritic activity in collagen-induced arthritis mouse model assessed as reduction in inflammation at 2 mg/kg, po qd measured up to 41 days; format: functional, organism-based
[6] = test system: Mus musculus; test: Antiarthritic activity in collagen-induced arthritis mouse model assessed as reduction in inflammation at 10 mg/kg, po qd measured up to 41 days; format: functional, organism-based
[7] = Drug concentration in mouse at 2 mg/kg, po qd after 24 hrs; format: ADME, organism-based; conditions: in vivo, read-out: Drug uptake
[8] = Drug concentration in mouse at 10 mg/kg, po qd after 24 hrs; format: ADME, organism-based; conditions: in vivo, read-out: Drug uptake
[9] = AUC in Sprague-Dawley rat at 2 mg/kg, iv; format: ADME, organism-based; conditions: in vivo
[10] = test system: Ribosomal protein S6 kinase alpha-2; test: Inhibition of wild-type human partial length C-terminal RSK3 kinase domain 2 (V403 to K700 residues) expressed in bacterial expression system assessed as residual activity at 50 nM by Kinomescan method relative to control
[11] = Half life in BALB/c mouse at 2 mg/kg, iv; format: ADME, organism-based; conditions: in vivo
[12] = test system: Rattus norvegicus; test: Cardiotoxicity in rat assessed as decrease in blood pressure at 30 mg/kg, po; format: toxicity, organism-based; parameters: scale not given: the % may be the effect or the level left; conditions: in vivo
[13] = Protein binding in mouse plasma at 10 mg/kg, po; format: ADME, organism-based; conditions: read-out: PPB (converted)
[14] = Cmax in Sprague-Dawley rat at 10 mg/kg, po; format: ADME, organism-based; parameters: dose 10 mg/kg, route oral; conditions: in vivo
[15] = Permeability from apical side to basolateral side in human Caco2 cells; format: ADME, cell-based; conditions: Caco-2, read-out: permeability
[16] = Protein binding in rat plasma; format: ADME, cell-free; conditions: read-out: PPB (converted)
[17] = biological target: Tyrosine-protein kinase JAK1 (Homo sapiens, UniProt P23458); test: Inhibition of wild-type human partial length JAK1 JH2 pseudokinase domain (R537 to D855 residues) expressed in mammalian expression system assessed as residual activity at 50 nM by Kinomescan method relative to control
[18] = biological target: Tyrosine-protein kinase Fgr (Homo sapiens) (UniProt P09769); test: Inhibition of wild-type human partial length FGR (L233 to T529 residues) expressed in bacterial expression system assessed as residual activity at 50 nM by Kinomescan method relative to control
[19] = Protein binding in human plasma; format: ADME, cell-free; conditions: read-out: PPB (converted)
[20] = Cmin in mouse at 10 mg/kg, po after 24 hrs; format: ADME, organism-based; conditions: in vivo, read-out: Cmin
[21] = test system: Oryctolagus cuniculus; test: Cardiotoxicity in rabbit assessed as decrease in mean arterial blood pressure at >3 mg/kg; format: toxicity, organism-based; conditions: in vivo
[22] = biological target: Serine/threonine-protein kinase PLK4 (Homo sapiens) (UniProt O00444); test: Inhibition of wild-type human partial length PLK4 (M1 to S273 residues) expressed in mammalian expression system assessed as residual activity at 50 nM by Kinomescan method relative to control
[23] = biological target: Ephrin type-B receptor 2 (Homo sapiens) (UniProt P29323); test: Inhibition of wild-type human partial length EPHB2 (I597 to L902 residues) expressed in bacterial expression system assessed as residual activity at 50 nM by Kinomescan method relative to control
[24] = Half life in Sprague-Dawley rat at 2 mg/kg, iv; format: ADME, organism-based; conditions: in vivo
[25] = biological target: Cyclin-dependent kinase-like 2 (Homo sapiens) (UniProt Q92772); test: Inhibition of wild-type human partial length CDKL2 (M1 to D327 residues) expressed in bacterial expression system assessed as residual activity at 50 nM by Kinomescan method relative to control
[26] = biological target: Calcium/calmodulin-dependent protein kinase type 1 (Homo sapiens) (UniProt Q14012); test: Inhibition of wild-type human full length CAMK1A (M1 to L370 residues) expressed in bacterial expression system assessed as residual activity at 50 nM by Kinomescan method relative to control
[27] = test system: Mitogen-activated protein kinase kinase kinase 12; test: Inhibition of wild-type human full length DLK (M1 to P859 residues) expressed in mammalian expression system assessed as residual activity at 50 nM by Kinomescan method relative to control
[28] = organism: Homo sapiens; test: Inhibition of calcium channel (unknown origin) at 10 uM by patch clamp assay
[29] = test system: Rattus norvegicus; test: Cardiotoxicity in rat assessed as decrease in mean arterial blood pressure at 200 mg/kg; format: toxicity, organism-based; conditions: in vivo
[30] = AUC in Sprague-Dawley rat at 10 mg/kg, po; format: ADME, organism-based; conditions: in vivo
[31] = Half life in BALB/c mouse at 10 mg/kg, po; format: ADME, organism-based; conditions: in vivo
[32] = biological target: Rho-associated protein kinase 2 (Homo sapiens, UniProt O75116); test: Inhibition of Rho-associated protein kinase 2 (unknown origin)
[33] = AUC in BALB/c mouse at 10 mg/kg, po; format: ADME, organism-based; conditions: in vivo
[34] = Inhibition of ACTR2 (unknown origin) assessed as residual activity at 50 nM by Kinomescan method relative to control; conditions: Homo sapiens
[35] = biological target: Cytochrome P450 3A4 (Homo sapiens, UniProt P08684); test: Inhibition of CYP3A4 (unknown origin); format: ADME
[36] = biological target: Myosin light chain kinase family member 4 (Homo sapiens) (UniProt Q86YV6); test: Inhibition of wild-type human partial length SGK085 (V79 to S380 residues) expressed in bacterial expression system assessed as residual activity at 50 nM by Kinomescan method relative to control
[37] = biological target: Tyrosine-protein kinase Lyn (Homo sapiens) (UniProt P07948); test: Inhibition of wild-type human partial length LYN (C219 to Q511 residues) expressed in bacterial expression system assessed as residual activity at 50 nM by Kinomescan method relative to control
[38] = Volume of distribution at steady state in BALB/c mouse at 2 mg/kg, iv; format: ADME, organism-based; conditions: in vivo, read-out: Vdss
[39] = biological target: Mitogen-activated protein kinase 9 (Homo sapiens) (UniProt P45984); test: Inhibition of wild-type human full length JNK2 (M1 to Q382 residues) expressed in mammalian expression system assessed as residual activity at 50 nM by Kinomescan method relative to control
[40] = biological target: Protein kinase C iota type (Homo sapiens) (UniProt P41743); test: Inhibition of recombinant human PKCiota (H215 to V587 residues) expressed in mammalian expression system assessed as residual activity at 50 nM by Kinomescan method relative to control
[41] = Aqueous solubility of compound at pH 6.5; format: physicochemical
[42] = Half life in human liver microsomes; format: ADME, microsome

Sequence of Tyrosine-protein kinase Fgr (Homo sapiens) (P09769 2-529 limits assumed): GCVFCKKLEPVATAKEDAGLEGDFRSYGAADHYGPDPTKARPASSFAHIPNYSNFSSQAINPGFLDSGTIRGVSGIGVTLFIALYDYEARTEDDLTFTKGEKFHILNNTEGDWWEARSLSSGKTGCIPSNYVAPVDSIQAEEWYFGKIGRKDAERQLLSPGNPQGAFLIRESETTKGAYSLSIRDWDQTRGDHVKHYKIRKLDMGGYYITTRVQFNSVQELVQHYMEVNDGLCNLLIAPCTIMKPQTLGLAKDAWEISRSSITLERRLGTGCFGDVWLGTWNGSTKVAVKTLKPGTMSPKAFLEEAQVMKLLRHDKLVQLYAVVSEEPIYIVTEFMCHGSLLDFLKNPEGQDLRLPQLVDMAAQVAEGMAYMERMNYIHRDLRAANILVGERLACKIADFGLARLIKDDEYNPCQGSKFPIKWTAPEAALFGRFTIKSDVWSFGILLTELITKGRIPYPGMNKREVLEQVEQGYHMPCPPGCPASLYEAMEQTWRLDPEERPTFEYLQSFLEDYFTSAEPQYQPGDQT
Sequence of Serine/threonine-protein kinase PLK4 (Homo sapiens) (O00444 whole entry, the tested form may be a part): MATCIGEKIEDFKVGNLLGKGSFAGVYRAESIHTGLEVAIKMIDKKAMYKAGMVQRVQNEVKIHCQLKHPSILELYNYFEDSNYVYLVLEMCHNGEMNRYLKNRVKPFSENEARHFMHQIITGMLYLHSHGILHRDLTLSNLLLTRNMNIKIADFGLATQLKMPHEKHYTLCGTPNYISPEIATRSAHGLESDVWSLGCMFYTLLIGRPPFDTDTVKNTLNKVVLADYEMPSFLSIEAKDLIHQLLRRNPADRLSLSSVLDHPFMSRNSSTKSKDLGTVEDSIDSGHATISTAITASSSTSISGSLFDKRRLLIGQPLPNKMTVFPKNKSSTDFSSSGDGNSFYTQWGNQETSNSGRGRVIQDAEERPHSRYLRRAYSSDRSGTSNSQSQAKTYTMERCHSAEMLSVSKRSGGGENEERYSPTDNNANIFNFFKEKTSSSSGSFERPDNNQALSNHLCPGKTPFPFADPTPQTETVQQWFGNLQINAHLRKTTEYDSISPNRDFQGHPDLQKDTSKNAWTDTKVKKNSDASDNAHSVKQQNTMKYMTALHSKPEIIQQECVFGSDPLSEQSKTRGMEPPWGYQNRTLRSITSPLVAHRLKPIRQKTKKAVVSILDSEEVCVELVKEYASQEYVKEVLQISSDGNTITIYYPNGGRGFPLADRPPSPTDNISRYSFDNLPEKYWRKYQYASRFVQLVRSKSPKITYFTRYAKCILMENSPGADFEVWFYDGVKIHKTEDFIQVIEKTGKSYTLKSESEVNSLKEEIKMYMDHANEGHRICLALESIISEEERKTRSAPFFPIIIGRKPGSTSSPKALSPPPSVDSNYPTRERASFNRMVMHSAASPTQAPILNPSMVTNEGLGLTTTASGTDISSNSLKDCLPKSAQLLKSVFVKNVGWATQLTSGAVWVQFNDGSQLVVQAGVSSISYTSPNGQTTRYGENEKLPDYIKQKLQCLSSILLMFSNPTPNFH
Sequence of Tyrosine-protein kinase JAK1 (P23458 whole entry, the tested form may be a part): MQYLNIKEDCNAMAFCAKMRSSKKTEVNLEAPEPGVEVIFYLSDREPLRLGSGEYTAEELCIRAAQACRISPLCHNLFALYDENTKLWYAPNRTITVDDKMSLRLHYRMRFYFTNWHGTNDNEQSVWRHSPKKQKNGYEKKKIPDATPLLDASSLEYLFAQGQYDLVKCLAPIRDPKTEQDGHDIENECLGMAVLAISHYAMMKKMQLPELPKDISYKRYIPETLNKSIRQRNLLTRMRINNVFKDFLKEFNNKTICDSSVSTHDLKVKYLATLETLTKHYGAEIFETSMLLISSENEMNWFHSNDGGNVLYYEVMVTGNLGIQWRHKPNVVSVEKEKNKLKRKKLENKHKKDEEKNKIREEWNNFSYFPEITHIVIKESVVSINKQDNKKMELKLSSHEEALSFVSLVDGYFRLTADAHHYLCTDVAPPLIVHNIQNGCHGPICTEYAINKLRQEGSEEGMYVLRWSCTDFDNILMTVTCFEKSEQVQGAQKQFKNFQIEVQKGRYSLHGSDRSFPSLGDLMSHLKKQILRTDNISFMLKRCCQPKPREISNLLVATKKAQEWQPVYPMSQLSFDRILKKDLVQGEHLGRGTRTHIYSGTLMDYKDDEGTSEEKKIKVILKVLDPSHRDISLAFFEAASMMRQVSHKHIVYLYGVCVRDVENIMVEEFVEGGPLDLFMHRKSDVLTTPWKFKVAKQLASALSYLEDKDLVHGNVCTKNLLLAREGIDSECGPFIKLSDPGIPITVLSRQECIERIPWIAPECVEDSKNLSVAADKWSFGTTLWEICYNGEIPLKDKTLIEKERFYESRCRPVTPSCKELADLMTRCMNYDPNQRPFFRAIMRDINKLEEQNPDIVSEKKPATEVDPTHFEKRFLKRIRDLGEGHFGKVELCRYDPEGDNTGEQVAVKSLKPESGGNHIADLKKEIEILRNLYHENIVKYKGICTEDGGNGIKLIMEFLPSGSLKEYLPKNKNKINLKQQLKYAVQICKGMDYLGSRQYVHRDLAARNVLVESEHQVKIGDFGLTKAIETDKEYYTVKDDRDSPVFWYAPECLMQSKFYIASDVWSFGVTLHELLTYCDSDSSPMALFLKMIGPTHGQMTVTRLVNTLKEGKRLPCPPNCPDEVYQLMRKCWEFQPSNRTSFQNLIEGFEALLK
Sequence of Myosin light chain kinase family member 4 (Homo sapiens) (Q86YV6 whole entry, the tested form may be a part): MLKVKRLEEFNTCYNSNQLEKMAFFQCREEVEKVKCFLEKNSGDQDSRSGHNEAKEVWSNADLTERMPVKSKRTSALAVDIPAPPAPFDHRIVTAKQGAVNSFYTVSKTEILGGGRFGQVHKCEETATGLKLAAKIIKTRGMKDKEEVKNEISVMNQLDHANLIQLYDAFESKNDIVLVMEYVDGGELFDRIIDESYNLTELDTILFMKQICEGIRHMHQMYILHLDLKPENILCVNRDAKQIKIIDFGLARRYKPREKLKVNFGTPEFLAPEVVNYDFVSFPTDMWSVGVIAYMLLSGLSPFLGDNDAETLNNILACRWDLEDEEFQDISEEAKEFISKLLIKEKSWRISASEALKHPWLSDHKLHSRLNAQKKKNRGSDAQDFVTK
Sequence of Mitogen-activated protein kinase 9 (Homo sapiens) (P45984 whole entry, looked up, the tested form may be a part): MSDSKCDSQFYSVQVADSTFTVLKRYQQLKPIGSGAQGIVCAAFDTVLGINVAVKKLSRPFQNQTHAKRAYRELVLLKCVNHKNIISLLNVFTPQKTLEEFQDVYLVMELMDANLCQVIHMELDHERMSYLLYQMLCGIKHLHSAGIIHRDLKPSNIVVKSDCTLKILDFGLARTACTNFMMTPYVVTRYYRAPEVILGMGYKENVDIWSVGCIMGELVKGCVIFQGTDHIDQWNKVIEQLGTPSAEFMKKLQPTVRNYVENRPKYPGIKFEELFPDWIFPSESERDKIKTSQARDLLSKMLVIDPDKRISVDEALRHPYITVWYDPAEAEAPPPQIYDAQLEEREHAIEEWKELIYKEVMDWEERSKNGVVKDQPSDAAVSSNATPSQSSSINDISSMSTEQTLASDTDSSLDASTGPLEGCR
Sequence of Cytochrome P450 3A4 (P08684 whole entry, the tested form may be a part): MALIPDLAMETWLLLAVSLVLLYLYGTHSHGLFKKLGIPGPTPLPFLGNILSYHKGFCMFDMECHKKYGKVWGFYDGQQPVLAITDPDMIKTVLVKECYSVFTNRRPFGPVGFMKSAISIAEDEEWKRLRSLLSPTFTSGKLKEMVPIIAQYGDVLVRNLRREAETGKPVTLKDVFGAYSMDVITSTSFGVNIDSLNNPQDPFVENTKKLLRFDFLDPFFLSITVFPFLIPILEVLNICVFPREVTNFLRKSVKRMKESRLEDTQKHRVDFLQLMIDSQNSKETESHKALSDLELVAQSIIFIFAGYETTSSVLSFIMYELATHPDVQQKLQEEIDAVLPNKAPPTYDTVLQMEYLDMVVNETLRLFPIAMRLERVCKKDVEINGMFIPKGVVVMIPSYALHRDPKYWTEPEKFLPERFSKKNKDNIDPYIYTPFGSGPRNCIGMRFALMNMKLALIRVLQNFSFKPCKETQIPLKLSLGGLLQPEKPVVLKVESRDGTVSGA
Sequence of Protein kinase C iota type (Homo sapiens) (P41743 whole entry, the tested form may be a part): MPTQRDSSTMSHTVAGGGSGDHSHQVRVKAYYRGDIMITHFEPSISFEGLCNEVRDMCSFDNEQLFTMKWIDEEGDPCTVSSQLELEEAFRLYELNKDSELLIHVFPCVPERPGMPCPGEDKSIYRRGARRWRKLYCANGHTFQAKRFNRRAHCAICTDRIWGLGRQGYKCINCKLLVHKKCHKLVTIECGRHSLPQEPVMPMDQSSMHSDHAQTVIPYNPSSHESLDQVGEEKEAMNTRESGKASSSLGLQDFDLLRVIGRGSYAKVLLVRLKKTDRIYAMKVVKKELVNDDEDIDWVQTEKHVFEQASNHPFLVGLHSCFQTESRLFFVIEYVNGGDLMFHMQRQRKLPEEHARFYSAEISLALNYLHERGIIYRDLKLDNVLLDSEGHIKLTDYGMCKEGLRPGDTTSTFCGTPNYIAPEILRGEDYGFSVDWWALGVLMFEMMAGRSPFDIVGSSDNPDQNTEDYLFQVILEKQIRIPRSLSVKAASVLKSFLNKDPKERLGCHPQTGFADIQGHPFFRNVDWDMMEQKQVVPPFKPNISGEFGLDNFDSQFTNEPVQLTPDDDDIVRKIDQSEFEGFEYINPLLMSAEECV
Sequence of Calcium/calmodulin-dependent protein kinase type 1 (Homo sapiens) (Q14012 whole entry, looked up, the tested form may be a part): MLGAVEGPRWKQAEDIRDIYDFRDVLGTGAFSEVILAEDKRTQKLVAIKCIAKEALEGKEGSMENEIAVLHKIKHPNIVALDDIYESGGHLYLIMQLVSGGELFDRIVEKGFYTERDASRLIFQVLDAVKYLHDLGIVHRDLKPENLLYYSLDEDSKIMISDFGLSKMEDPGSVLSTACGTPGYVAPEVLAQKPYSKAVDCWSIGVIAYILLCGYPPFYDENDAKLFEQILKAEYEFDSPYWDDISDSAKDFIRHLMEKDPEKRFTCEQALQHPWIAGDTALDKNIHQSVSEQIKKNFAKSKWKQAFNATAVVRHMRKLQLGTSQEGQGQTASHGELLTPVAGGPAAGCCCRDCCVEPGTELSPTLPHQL

In the case of CC1(C)[C@H](Nc2c(C(N)=O)cnn3cc(-c4ccccc4)cc23)CC[C@]1(C)N, the fraction unbound [1] is reported as 0.52, the concentration at 24 h [2] is reported as 230 nM and the IC50 [3] is reported as 270 nM. The bioavailability [4] was 67%, the Activity [5] was “inactive” and the Activity [6] was “Active”. The concentration at 24 h [7] was 60 nM and the concentration at 24 h [8] was 390 nM.
Work on COc1ccc(-c2cc3c(N[C@@H]4CC[C@](C)(N)C4(C)C)c(C(N)=O)cnn3c2)cn1 yielded an AUC [9] of 5.8 µM·h, an Activity [10] of 93% and a half-life [11] of 6.5 h. The Activity [12] was 14%, the fraction unbound [13] was 0.07 and the Cmax [14] was 600 nM. For the same molecule, the Papp A→B [15] was 2.6 ×10⁻⁶ cm/s, the fraction unbound [16] was 0.12 and the Activity [17] was 78%. The Activity [18] was 99%, the fraction unbound [19] was 0.1 and the concentration at 24 h [20] was 300 nM. The Activity [21] was “Toxic”, the Activity [22] was 100% and the Activity [23] was 100%. The half-life [24] was 9.8 h, the Activity [25] was 93% and the Activity [26] was 100%. The Activity [27] was 81%, the inhibition [28] was 16% and the Activity [29] was “Toxic”. For the same molecule, the AUC [30] was 12.9 µM·h, the half-life [31] was 10.2 h and the IC50 [32] was 43 nM. It also gave an AUC [33] of 17.9 µM·h, an Activity [34] of 100% and an IC50 [35] of 11000 nM. It also gave an Activity [36] of 94%, an Activity [37] of 100% and a Vd [38] of 8.2 L/kg. It also gave an Activity [39] of 88%, an Activity [40] of 100% and a solubility [41] of 79 µg/mL (≈ 193 µM). For the same molecule, the half-life [42] was > 1.5 h.
